From the SangsterLogP compilation

Assay: method code SF-AS, from PMID: 4480356

Row | Structure (SMILES) | logP
1 | Cc1cnc(Cc2ccc(O)cc2)s1 | 2.62
2 | Nc1ccccc1C(c1ccc(O)cc1)c1ccc(O)cc1 | 3.16
3 | OCc1ccccc1C(c1ccc(O)cc1)c1ccc(O)cc1 | 3.27
4 | Oc1ccc(C(c2ccc(O)cc2)c2nccs2)cc1 | 2.96
5 | Oc1ccc(C(c2ccc(O)cc2)c2cccnc2)cc1 | 3.13
6 | Oc1ccc(C(c2ccncc2)c2ccc(O)cc2)cc1 | 3.24
7 | O=C(O)c1ccccc1C(c1ccc(O)cc1)c1ccc(O)cc1 | 2.61
8 | Cc1cnc(C(c2ccc(O)cc2)c2ccc(O)cc2)s1 | 3.34
9 | Oc1ccc(C(c2ccc(O)cc2)c2ccccn2)cc1 | 2.84
10 | Oc1ccc(Cc2ccc(O)cc2)cc1 | 2.91
